Key:
[1] = test system: Antigen-Induced Dyspnea in Inbred Rats; test: Antigen-induced dyspnea in sensitized inbred asthmatic rats challenged with aerosolized egg albumin; type: in vivo; conditions: for Duration of Dyspnea in Minutes (Mean±S.D.) n=6/group: 1 mg/kg s.c. 1 hour before antigen challenge; for Inhibition %: inhibition of duration of dyspnea vs vehicle control, 1 mg/kg s.c. 1 hour
Excerpt: Sensitized inbred "asthmatic rats" challenged with aerosolized antigen respond with symptoms of continuous dyspnea which is partly mediated by serotonin. […] These rats differed from normal rats in that they have nonspecific bronchial hyperreactivity to a number of bronchoconstrictor agents (Brunet et al., J. Immun., 131, 434-438 (1983)].
• (1) Animals: Rats were obtained from an inbred line of asthmatic rats that were developed and maintained in local laboratories and later at a local farm. Male and female rats were used between 10-12 weeks of age. Their weights ranged from 220-240 gm (females) and 350-400 gm (males). Rats were matched by sex and littermates between the various treatment groups. • (2) Materials: Egg albumin (EA), grade V, crystallized and lyophilized (Sigma Chemical Co., St. Louis), aluminum hydroxide (Reheis Chemical Company, Chicago), and methysergide bimaleate (Sandoz Ltd., Basel, Switzerland). • (3) Apparatus: The challenge and subsequent respiratory recordings were carried out in a clear plastic box with internal dimensions 10 x 6 x 4 inches. The top of the box was removable; in use, it was held firmly in place by four clamps and an airtight seal was maintained by a soft rubber gasket. Through the centre of each end of the chamber a Devilbiss nebulizer (No. 40) was inserted via an airtight seal and each end of the box was also equipped with an outlet. A Fleisch No. 0000 pneumotachograph was inserted into one end of the box and coupled to a Grass volumetric pressure transducer (PT5-A) which was then connected to a Beckman Type R Dynograph through appropriate couplers. While aerosolizing the antigen, the outlets were open and the pneumotachograph was isolated from the chamber. The outlets were closed and the pneumotachograph and the chamber were connected during the recordings of the respiratory patterns. For challenge, 2 ml of 3% solution of antigen in saline was placed into each nebulizer and the aerosol was generated with air from a small Potter diaphragm pump operating at 10 psi and a flow of 8 litre/minute. • (4) Procedure: Rats were sensitized by injecting (s.c.) 1 ml of suspension containing 1 mg egg albumin (EA) and 200 mg aluminum hydroxide in saline. They were used on day 13 post sensitization. Rats were exposed to aerosol of 3% EA in saline for exatly 1 minute, then their respiratory profiles were recorded for an additional 30 minutes. The duration of continuous dyspnea was measured from the respiratory recordings.
Form.I-8) was administered subcutaneously as a solution in 5% mannitol 1 hour prior to challenge with antigen. Methysergide bimaleate was dissolved in saline and given intravenously at dose of 3 ug/kg 5 minutes before challenge. Dose volume employed for subcutaneous treatments was 2 ml/kg and for i.v. treatments 1 ml/kg. Control groups of rats (n-6) were treated subcutaneously with drug vehicle (5% mannitol).
The sensitivity of various drug treatments were determined in terms of the decrease in duration of dyspnea in comparison with a group of vehicle- treated controls. Comparisons between groups were made using the Student's t-test.

[2] = test system: Antigen-Induced Dyspnea in Inbred Rats; conditions: 3 µg/kg i.v. before challenge; background statement in the introduction; cited from earlier work

Row | SMILES | Duration of Dyspnea in Minutes (Mean±S.D.) n=6/group ([1]; + Methysergide (3 µg/kg i.v. 5 minutes prior to challenge)) [min] | Duration of Dyspnea in Minutes (Mean±S.D.) n=6/group ([1]; - Methysergide) [min] | activity on duration of antigen-induced dyspnea ([1]; 1 mg/kg s.c., without methysergide to block the serotonin component) | Inhibition % ([1]; + Methysergide (3 µg/kg i.v. 5 minutes prior to challenge), p < 0.01) [p < 0.01%] | Inhibition % ([1]; + Methysergide (3 µg/kg i.v. 5 minutes prior to challenge); p < 0.01; listed as Form.1-8)) [%] | Inhibition % ([1]; - Methysergide) [%] | serotonin component of continuous dyspnea [2]
1 | CC(C)[C@@H]1NC(=O)[C@H](CCCCN)NC(=O)[C@@H](Cc2c[nH]c3ccccc23)NC(=O)[C@H](Cc2ccc(O)cc2)NC(=O)[C@H](C)N(C)C(=O)[C@H](Cc2ccccc2)NC1=O [Form.I-8), Cycle-(N-Me-Ala-Tyr-D-Trp-Lys-Val-Phe)] | 5.7 ± 3.9 | 18.2 ± 3.6 | failed to produce activity | 57 | 57 | 0 | 
2 | CC[C@@H](CO)NC(=O)[C@@H]1C=C2c3cccc4c3c(cn4C)C[C@H]2N(C)C1 [methysergide, methysergide bimaleate] |  |  |  |  |  |  | completely blocked
